{"source": "patent US20200368234A1", "about": "“PHOTORECEPTOR GENE MODULATOR PHOTOREGULIN 3 FOR TREATMENT OF RETINAL DISEASE” (University of Washington, priority 2017, published 2020)", "key": {"Rho^P23H mice": {"test_system": "Rho^P23H mice", "assay": "Photoreceptor degeneration in Rho^P23H mice: histology and qPCR at P21", "assay_type": "in vivo, mouse", "conditions": "10 mg/kg i.p. from P12-P14 until P21, vs DMSO vehicle", "protocol": "FIG. 3A illustrates the timeline of photoreceptor degeneration in the Rhodopsin^P23H mouse and experimental design.\nTo determine whether photoreceptor degeneration can be prevented, Rho^P23H mice were treated with PR3 or vehicle from P12-P14 until P21, during the period of rod photoreceptor death (FIG. 3A). At P21, visual function was assessed with ERGs and euthanized the mice for histological and qPCR analyses. At P21, control Rho^P23H mice had only 2-3 rows of photoreceptors remaining in their ONL (FIGS. 3B and 3C). Rods were sparse and there were few remaining cones (S Opsin+ and Cone Arrestin+ photoreceptors). Control Rho^P23H mice had minimal scotopic and photopic b-wave amplitudes by ERG analysis (FIGS. 4A, 4B, 4D, and 4E). […]\nPhotoregulin3 was identified by searching previous small molecule screens with SciFinder and PubChem for Nr2e3 interacting molecules. It was initially obtained from ChemDiv and then synthesized and purified in large quantities in the lab after initial screening. […]\nRNA from retinas was isolated using TRIzol (Invitrogen) and cDNA was synthesized using the iScript cDNA synthesis kit (Bio-Rad). SSO Fast (Bio-Rad) was used for quantitative real-time PCR. For analysis, values were normalized to Gapdh (ΔCt) and ΔΔCt between DMSO and compound-treated samples was expressed as percent of DMSO treated controls (100*2^ΔΔCt). […]"}, "rod photoreceptor genes": {"test_system": "rod photoreceptor genes", "assay": "RNA sequencing of retinas of wild type mice after intraperitoneal PR3", "assay_type": "in vivo", "conditions": "10 mg/kg i.p. at P12, retinas collected 24 h later", "protocol": "Nr2e3 signaling is important for rod photoreceptor cell fate, development and maturation, and maintenance of expression. To determine the effect of PR3 treatment on gene expression in postmitotic retinal cells, wild type mice were systemically treated (intraperitoneal injection) with PR3 or vehicle at P12. At P13, 24 h after the injection, the retinas were collected for global transcriptome analysis by RNA sequencing.\nPhotoregulin3 was identified by searching previous small molecule screens with SciFinder and PubChem for Nr2e3 interacting molecules. It was initially obtained from ChemDiv and then synthesized and purified in large quantities in the lab after initial screening. For in vivo experiments, mice were injected intraperitoneally with PR3 dissolved in DMSO at 10 mg/kg.\nRNA from retinas was isolated using TRIzol (Invitrogen) and total RNA integrity was checking using an Agilent 4200 TapeStation and quantified using a Trinean DropSense96 spectrophotometer. RNA-seq libraries were prepared from total RNA using the TruSeq RNA Sample Prep kit (Illumina) and a Sciclone NGSx Workstation (PerkinElmer). Library size distributions were validated using an Agilent 4200 TapeStation. Additional Library quality control, blending of pooled indexed libraries, and cluster optimization were performed using Life Technologies' Invitrogen Qubit Fluorometer. RNA-seq libraries were pooled (4-plex) and clustered onto a flow cell lane. Sequencing was performed using an Illumina HiSeq 2500 in rapid mode employing a paired-end, 50 base read length (PE50) sequencing strategy."}}, "note": "“Also recorded” adds a separate entry of the source.", "data": [{"smiles": "COc1cc2nc(CN3CC=C(c4ccccc4)CC3)nc(O)c2cc1OC", "note": "[PR3]", "values": [{"measurement": "expression of photoreceptor genes in whole retinas (qPCR)", "setting": "Rho^P23H mice", "result": "greater expression of photoreceptor genes Recoverin, Rhodopsin, and S Opsin; also recorded: more expression of Recoverin and Rhodopsin"}, {"measurement": "rows of photoreceptors (DAPI+ cells) in the ONL", "setting": "Rho^P23H mice", "result": "greater survival of photoreceptors; also recorded: several rows of rod and cone photoreceptors in the ONL"}, {"measurement": "cone gene expression (RNA sequencing)", "setting": "rod photoreceptor genes", "result": "large and global increases in cone gene expression were not observed"}, {"measurement": "toxicity to retinal cells (cell death and cell stress genes, RNA sequencing)", "setting": "rod photoreceptor genes", "result": "not toxic to retinal cells"}, {"measurement": "rod photoreceptor gene expression (RNA sequencing)", "setting": "rod photoreceptor genes; 10 mg/kg", "result": "robust reduction in rod photoreceptor genes; also recorded: decrease in most rod photoreceptor-specific transcripts"}]}]}
